One may read the IC50 as the concentration at which inhibition is half-maximal.

The test system of data set [1] is IL-1β. Briefly: LPS-induced IL-1β gene expression in RAW 264.7 macrophages. The data set is classed as cell-based. The conditions noted are these: 1 and 5 μM; RAW 264.7, LPS. How it is done:
(§1) All reagents were supplied from Sigma-Aldrich Co. (St. Louis, Mo.) unless otherwise noted. RAW 264.7 macrophages (ATCC TIB-71) were maintained in Dulbecco's modified Eagle's medium (Caisson, North Logan, Utah) supplemented with 100 U/mL penicillin, 100 μg/mL streptomycin, and 10% fetal bovine serum. Cells were incubated at 37° C. in a 5% CO2 humidified atmosphere and subcultured by cell scraping. For experiments, RAW cells were plated at a density of 4×10^5 cells/mL in 24-well plates. Cells were incubated overnight (18 h), washed with warm 37° C. PBS, and medium was replaced fresh DMEM medium. […] Lipopolysaccharide (1 μg/mL) was added after 2 h incubation with treatments to elicit inflammatory responses. Cells were treated in duplicate or triplicate. After an additional 6 h incubation period, media were collected and cells were washed with PBS prior to collection in TRIzol® Reagent (Ambion, Life Technologies). […]
(§2) Total RNA was extracted from cells according to manufacturer's specifications. […] RNA integrity was evaluated by running about 1 μg of RNA on a 1% agarose gel. […]
(§3) Quantitative PCR amplifications were performed on an ABI 7300 Real-Time PCR System (Applied Biosystems) with the following thermal cycler profile: 2 minutes, 50° C.; 10 minutes, 95° C.; 15 seconds, 95° C.; 1 minute, 60° C. for the dissociation stage; 15 seconds, 95° C.; 1 minutes, 60° C.; and 15 seconds, 95° C. […]

Data set [2] concerns RAW 264.7 macrophages. As to the kind of experiment: MTT-based cell viability assay. To be noted: concentrations tested in anti-inflammatory assays. How it is done:
The effect of the treatments on cell viability was measured using MTT [3-(4,5-dimethyl-2-thiazolyl)-2,5-diphenyltetrazolium bromide] (TCI, Portland, Oreg.) (Mosmann, 1983). MTT (5 mg/mL) was dissolved in PBS (Cayman Chemical, Ann Arbor, Mich.), filtered through a 0.22 μm membrane and added to treated cells during the last 3-4 hours of treatment. Media were carefully aspirated and cells were dissolved in DMSO. The absorbance was read at 570 nm.

In data set [3] the test system is NO formation. To be noted: Cheenpracha et al., 2010; read-out: NO inhibition IC50; cited from earlier work.
The subject of data set [4] is iNOS. Briefly: LPS-induced iNOS gene expression in RAW 264.7 macrophages. The data set is classed as cell-based. To be noted: 1 and 5 μM; RAW 264.7, LPS. As to the method:
as §1, §2, §3

The subject of data set [5] is H4IIE rat hepatoma cells. Briefly: In vitro gluconeogenesis: glucose production. It is filed as cell-based. The conditions noted are these: HII4E liver cells; for activity on glucose production relative to SF: same concentrations; for IC50: range of 5 concentrations. As to the method: H4IIE rat hepatoma cells (CRL-1548, American Type Culture Collection, Manassas, Va.) were assayed for glucose production as previously described (21). Cell viability was measured by the 3-(4,5-Dimethyl-2-thiazolyl)-2,5-diphenyltetrazolium bromide (MTT; TCI, Portland, Oreg.) assay (22). RNA extraction, cDNA synthesis and qPCR for gene expression of PEPCK and G6P were performed as described above.

For data set [6] the following is noted: rotoevaporation 1 hour at 50° C., compared to freeze-dried samples. An excerpt:
Drying the 1:5 ratio preparations can be achieved by rotoevaporation, followed by freeze-drying or spray drying. […] Further concentration of MICs and removal of sugars from the extract can also be performed with solid phase-extraction (SPE).

Data set [7] is described as follows: Compound stability of MICs in moringa extract stored at 37° C. It is filed as physicochemical. To be noted: 37° C. for 30 days, compared to day 0.
Data set [8] deals with Nitric oxide (NO). Briefly: Nitric oxide production analysis (Griess) in RAW 264.7 macrophages. The data set is classed as cell-based. The conditions noted are these: 5 μM. How it is done:
(§4) All reagents were supplied from Sigma-Aldrich Co. (St. Louis, Mo.) unless otherwise noted. RAW 264.7 macrophages (ATCC TIB-71) were maintained in Dulbecco's modified Eagle's medium (Caisson, North Logan, Utah) supplemented with 100 U/mL penicillin, 100 μg/mL streptomycin, and 10% fetal bovine serum. Cells were incubated at 37° C. in a 5% CO2 humidified atmosphere and subcultured by cell scraping. For experiments, RAW cells were plated at a density of 4×10^5 cells/mL in 24-well plates. Cells were incubated overnight (18 h), washed with warm 37° C. PBS, and medium was replaced fresh DMEM medium. […] Lipopolysaccharide (1 μg/mL) was added after 2 h incubation with treatments to elicit inflammatory responses. Cells were treated in duplicate or triplicate. After an additional 6 h incubation period, media were collected and cells were washed with PBS prior to collection in TRIzol® Reagent (Ambion, Life Technologies). Samples were stored at −80° C. prior to processing.
After treatments, 1 mL of media was collected and assayed in duplicate following the Griess Reagent System provided by Promega (Promega Corporation; Madison, Wis.). The nitrite standard (0.1 M sodium nitrite) reference curve was built performing a serial dilution (0 to 100 μM). Absorbance was read at 540 nm.
For orientation: The Griess reaction detects nitrite, a stable product of nitric oxide.

Data set [9] has as its system TNF-α. As to the kind of experiment: TNF-α secretion analysis (ELISA) in RAW 264.7 macrophages. The conditions noted are these: 5 μM. The data set is classed as cell-based, Mouse. As to the method:
as §4
After treatments, 1 mL of media was collected and immediately centrifuged at 13,500 g at 4° C. for 10 minutes. The supernatant was preserved at −80° C. until further processing with the BD OptEIATM Mouse TNF ELISA kit (BD Bioscience, San Jose, Calif.) following the manufacturer's protocol. […] TNF-α levels were quantified using a reference standard curve provided with the kit. Absorbance was read at 450 nm and corrected at 570 nm.
(In general: In an ELISA, binding on a coated surface is turned into a signal by an enzyme label.)

Data set [10] relates to TNF-α. Briefly: LPS-induced TNF-α gene expression in RAW 264.7 macrophages. The data set is classed as cell-based. To be noted: any of the concentrations tested; RAW 264.7, LPS. As to the method:
as §1, §2, §3

Data set [11] has as its system IL-6. As to the kind of experiment: LPS-induced IL-6 gene expression in RAW 264.7 macrophages. The data set is classed as cell-based. The conditions noted are these: 5 μM; RAW 264.7, LPS. As to the method: as §1, §2, §3
For data set [12] the following is noted: after 6 days at 37° C.; Franklin et al., 2013; cited from earlier work.

The structures appear in SMILES notation.

Regarding `C[C@@H]1O[C@@H](Oc2ccc(CN=C=S)cc2)[C@H](O)[C@H](O)[C@H]1O` [MIC-1, 4-[(α-L-rhamnosyloxy)benzyl] isothiocyanate], the “mRNA expression of IL-1β” value in [1] is “significant reduction”. In [2], the “cytotoxicity (MTT cell viability)” value is listed as “no signs of cytotoxicity”. Also, the IC50 in data set [3] is 14.4 µM. In [4], the “mRNA expression of iNOS” value is recorded as “significant reduction”. Also, the “activity on glucose production relative to SF” value in data set [5] is recorded as “superior activity to SF”. The “loss of MIC under rotoevaporation conditions” value in data set [6] was “No significant loss”. Besides, the “degradation of MIC in moringa extract” value in data set [7] is reported as “approximately 80%”. Also, in [8], the NO formation result is reported as “inhibited NO formation”. Also, the “reduction of TNF-α production” value in [9] is on record as 20%. In addition, the TNF-α gene expression result in data set [10] was “no reduction”. Also, the IL-6 gene expression entry in [11] is on record as “decrease IL-6 gene expression significantly”.

As for `CC(=O)O[C@@H]1[C@@H](O)[C@@H](O)[C@H](Oc2ccc(CN=C=S)cc2)O[C@H]1C` [MIC-4, 4-[(4′-O-acetyl-α-L-rhamnosyloxy)benzyl] isothiocyanate], the “mRNA expression of IL-1β” value in [1] is on record as “significant reduction”. Also, the “cytotoxicity (MTT cell viability)” value in data set [2] is given as “no signs of cytotoxicity”. In addition, the figures for the IC50 in data set [3] and in data set [5] were 2.71 µM and 7 µM, respectively. Moreover, the “mRNA expression of iNOS” value in data set [4] is recorded as “significant reduction”. In addition, the “activity on glucose production relative to SF” value in [5] is “superior activity to SF”. In data set [6], the “loss of MIC under rotoevaporation conditions” value is reported as “No significant loss”. The “degradation of MIC in moringa extract” value in data set [7] is reported as roughly 20%. Besides, the NO formation entry in data set [8] was “inhibited NO formation”. In data set [9], the “reduction of TNF-α production” value stood at 27%. Further, in data set [10], the TNF-α gene expression entry is recorded as “no reduction”.

As for `C[S+]([O-])CCCCN=C=S` (stereo not drawn) [SF, sulforaphane], in data set [12], the “degradation of SF” value is 75%.

Turning to `CN(C)C(=N)N=C(N)N` [metformin, reference compound], the concentration for half-maximal inhibition (IC50) in [5] (Rattus norvegicus) worked out at 800 µM.

(Values after patent US20160243176A1, “EXTRACTS FROM PLANTS OF THE MORINGACEAE FAMILY AND METHODS OF MAKING” (RUTGERS, THE STATE UNIVERSITY OF NEW JERSEY, priority 2013, published 2016).)
